Data: ChEMBL document CHEMBL1157139, “A structural analysis of the differential cytotoxicity of chemicals in the NCI-60 cancer cell lines” (2008)

What was measured:
Assay type in all cases: functional
NCI-H522 = experiment: Cytotoxicity against human NCI-H522 cells; settings: for TGI: read-out: pTGI (converted)
A549 = experiment: Cytotoxicity against human A549 cells; settings: for GI50: A549; for CC50: A549, read-out: pLC50 (converted); for TGI: A549, read-out: pTGI (converted)
NCI-H23 = experiment: Cytotoxicity against human NCI-H23 cells; settings: for CC50: read-out: pLC50 (the source's name) (converted); for TGI: read-out: pTGI (converted)

## O=C(O)c1ccccn1 [2-PICOLINIC ACID]
NCI-H522
  GI50: 0.693 µM
  TGI: 1.05 µM
A549
  GI50: 65.2 µM
  CC50: > 100 µM
  TGI: 82 µM
NCI-H23
  GI50: 61.8 µM
  CC50: 88.5 µM
  TGI: 74 µM

## C[C@@H]1C[C@@H]([C@H](O)CC2CC(=O)NC(=O)C2)C(=O)[C@@H](C)C1 [CYCLOHEXIMIDE]
NCI-H522
  GI50: > 100 µM
  TGI: > 100 µM
A549
  GI50: > 100 µM
  CC50: > 100 µM
  TGI: > 100 µM
NCI-H23
  GI50: > 100 µM
  CC50: > 100 µM
  TGI: > 100 µM
